Converted amounts (≈) assume the structure as drawn. “Also recorded” adds a separate entry of the source.
What was measured:
[1] = biological target: T1, Amyloid βeta (Aβeta) fragment 25-35 (Homo sapiens, UniProt P05067); assay: Dissolution of Amyloid beta fragments (transmission electron microscopy); assay type: biochemical; conditions: for concentration at which the compound works in dissolving amyloid aggregates: Aβeta 25-35 50 μg/ml, 37° C., 6 days
T1 construct: Amyloid βeta (Aβeta) fragment 25-35 (Sigma A-4559); purchased Sigma A-4559
Procedure: Amyloid βeta (Aβeta) fragment 25-35 (Sigma A-4559) was diluted in water to a stock of 1 mg/ml. […] Samples were incubated at 37° C. for 6 days. Aggregation of the protein fragment was determined using transmission electron microscopy. 200 mesh carbon coated grids (Electron Microscopy Sciences) were used and prepared for negative staining by adding 5 μl of incubation mixture to the grid surface for one minute, followed by drying the grid with filter paper and contrasting with 5 μl of freshly filtered 2% phosphotungstic acid (pH=7.2) for one minute. Once grids were dry, examination was done using the FEI Tecnai Spirit at the College of Staten Island's Advanced Imaging Facility. Micrographs were captured using an AMT CCD camera.

[2] = Solubility study via UV-Vis spectroscopy (direct solubility in water)
[3] = Antioxidant potentiality assay by linoleic acid peroxidation (thiocyanide method); conditions: in water, aqueous medium; FIG. 1
Procedure: 0.28 gm of linoleic acid, 0.28 gm of tween 40 as emulsifier and 50 ml of phosphate buffer (0.2 M, pH 7) were used to prepare a linoleic acid emulsion. The curcuminoids (5 mg per ml) were dissolved in water and 0.5 ml of each one of them was pipetted out into different test-tubes. Then 2.5 ml of linoleic acid emulsion was added to each one of them followed by the addition of 2.5 ml of phosphate buffer. All the tubes were incubated at 37° C. for 7 days. The mixture prepared as above without test sample was the control one. At the regular interval of 24 hours, 0.1 ml of the aliquots were drawn out of the incubation mixture and mixed with 5 ml of 75% ethanol, 0.1 ml of 30% ammonium thiocyanate and 0.1 ml of 20 mM ferrous chloride in 3.5% HCl. The tubes were allowed to stand in room temperature for 3 minutes. Spectrophotometric analysis was done at 500 nm. All the tests were carried out in duplicate and averaged. Anoxidant activity=[1-increase in absorbance of the sample/increase in absorbance of control]*100.

[4] = tested on: cultured hippocampal slices (normal brain tissue); assay: MTT cell viability assay on cultured hippocampal slices; assay type: cell-based, mouse; conditions: for cell viability (MTT) versus control: overnight, hippocampal slices
Procedure: To assess the viability of the normal brain tissue in presence of the sweet curry MTT assay on cultured hippocampal slices were performed.
Mouse pups of specific ages were anesthetized with ketamine (100 mg/kg) and decapitated. Under sterile conditions, the brains were isolated and then cut at 60° from the longitudinal fissure at the top using a hippocampus-dissecting tool to expose the hippocampus. The hemispheres containing the hippocampi were then placed in modified Gey's balanced salt solution (mGBSS) at 4° C. for 30-40 minutes while bubbling a mixture of 95% O2 and 5% CO2. Individual hippocampi were isolated using dissection tool and then […] thick transverse slices were prepared using a tissue chopper (Stoelting, Wood Dale, Ill., USA). The slices were placed in ice cold mGBSS and inspected using a dissection microscope for the presence of uninterrupted bright transparent neuronal layers characteristic of the hippocampal structure. Only such slices were placed on Millicell CM filters (Millipore, Bedford, Mass., USA). The filters were placed in a six well dish with 1 ml of medium in each well. The slices were kept on high K^+ culture medium (25% horse serum, 50% Basal Essential Media-Eagles, 25% Eagle's Balanced Salt Solution (EBSS), 25 mM Na-HEPES, 1 mM Glutamine, 28 mM Glucose, pH 7.2) for the first two days. After incubation at 32° C. in a 5% CO2 atmosphere, the culture medium was changed to physiological K^+ slice culture medium (20% dialyzed fetal bovine serum, 5% Basal Essential Media-Eagles, and EBSS modified to adjust the K^+ concentration to 2.66 mM). After 20% dialyzed serum treatment for two days and the slices were placed in 5% serum medium (same medium as above but with 5% serum) for two days.
Hippocampal slices from adult mice brain were cultured as described by Mehta et al (2007). After six days in vitro the slices were treated with different concentrations of the sweet curry (i.e., 8 nM, 8 μM and 80 μM respectively) overnight along with the slices treated with the carrier as control.
After the treatment with sweet curry, slices from each treatment group were placed in 400 μl PBS in one well of 48-well plate and then treated with 200 μl of MTT (5 mg/ml) per well with gentle mixing at 37° C. for 2 hours. The slices were triturated to homogenize with the help of a micropipette. After that 800 μl of lysis buffer (20% SDS, 50% dimethylformamide) was added to each well and the plate was sealed and incubated overnight at 37° C. with gentle mixing. Now 100 μl mix from each well was taken in respective wells of a 96 well plate in triplicates and absorbance was measured at 570 nm using a plate reader. Results obtained were normalized to the total protein content and then expressed as percent carrier-treated samples.

| concentration at which the compound works in dissolving amyloid aggregates ([1]; electron micrographs) | effectiveness in dissolving amyloid aggregates relative to curcumin ([1]; ratio of working concentrations) | solubility ([2]; deionized water, water, thermodynamic from solid) | SMILES | effectiveness in dissolving amyloid aggregates ([1]; electron micrographs) | solubility in water relative to curcumin and derivatives ([2]; water (plasma model), listed as Sweet curry 1d) | anti-oxidant potential (AOP), comparison in words [3] | effect on normal brain tissue (viability), conclusion ([4]; 8 nM to 80 μM) | cell viability (MTT) versus control ([4]; 8 nM) | cell viability (MTT) versus control ([4]; 8 μM) | cell viability (MTT) versus control ([4]; 80 μM) |
| --- | --- | --- | --- | --- | --- | --- | --- | --- | --- | --- |
| 8 nmol | 1000 times | 6 mM (≈ 4460 µg/mL) | COc1cc(/C=C/C(=O)CC(=O)/C=C/c2ccc(OCc3cn(CCOCCOCCOC4OC(CO)C(O)C(O)C4O)nn3)c(OC)c2)ccc1O (centres unmarked) [Compound 1d, curcumin-“Clicked”-mono-galactose] | significantly more effective than curcumin in dissolving amyloid aggregates | far superior solubility compared to curcumin in water; also recorded: superiorly soluble in water compared to Curcumin and derivatives 1a and 1b | much better antioxidant than Curcumin 1 as well as other curcumin derivatives (1a,1b) | no harmful effect on the normal brain tissue | near the control samples | near the control samples | a little higher than the control samples |
| 8 µM |  |  | COc1cc(/C=C/C(=O)CC(=O)/C=C/c2ccc(O)c(OC)c2)ccc1O [curcumin, (1E,6E)-1,7-bis(4-hydroxy-3-methoxyphenyl)hepta-1,6-diene 3,5-dione, reference compound] |  |  |  |  |  |  |  |

Reference: patent publication US9650404B2 (RESEARCH FOUNDATION OF THE CITY UNIVERSITY OF NEW YORK, priority 2010, dated 2017)
